Calls of active or inactive are those of the source. The rule behind the calls is not given here.
Tests used:
Digitaria sanguinalis [1] = assay: Post-emergence herbicidal activity against Digitaria sanguinalis (hairy crabgrass) assessed as growth inhibition at 25 g a.i/10 a applied 11 days after germination as foliar spray; type: functional, organism-based
[2] = (§1) Pre-emergence phytotoxicity against Zea mays (maize) assessed as mortality at 1.6 g a.i/10 a; type: organism-based; details: in vivo, 1.6 g a.i/10 a, read-out: mortality
Echinochloa crus-galli [3] = assay: Pre-emergence herbicidal activity against Echinochloa crus-galli (barnyard grass) assessed as mortality at 1.6 g a.i/10 a; type: functional; details: Echinochloa crus-galli, pre-emergence
Zea mays [4] = assay: Post-emergence phytotoxicity against Zea mays (maize) assessed as mortality at 6.3 g a.i/10 a applied 11 days after germination as foliar spray; type: organism-based; details: in vivo, other, 264 h
Persicaria nodosa [5] = assay: Post-emergence herbicidal activity against Persicaria nodosa assessed as growth inhibition at 25 g a.i/10 a applied 11 days after germination as foliar spray; type: functional, organism-based
Xanthium strumarium [6] = assay: Pre-emergence herbicidal activity against Xanthium strumarium (cocklebur) assessed as mortality at 1.6 g a.i/10 a; type: functional
Zea mays [7] = assay: Post-emergence phytotoxicity against Zea mays (maize) assessed as mortality at 1.6 g a.i/10 a applied 11 days after germination as foliar spray; type: organism-based; details: in vivo, other, 264 h
Chenopodium album [8] = assay: Pre-emergence herbicidal activity against Chenopodium album assessed as growth inhibition at 25 g a.i/10 a; type: functional, organism-based
Amaranthus retroflexus [9] = assay: Post-emergence herbicidal activity against Amaranthus retroflexus assessed as growth inhibition at 25 g a.i/10 a applied 11 days after germination as foliar spray; type: functional, organism-based
Xanthium strumarium [10] = assay: Post-emergence herbicidal activity against Xanthium strumarium (cocklebur) assessed as mortality at 1.6 g a.i/10 a applied 11 days after germination as foliar spray; type: functional; details: 264 h
Gossypium hirsutum [11] = assay: (§2) Post-emergence phytotoxicity against Gossypium hirsutum (cotton) assessed as mortality at 1.6 g a.i/10 a applied 11 days after germination as foliar spray; type: organism-based; details: in vivo, other, 264 h
Abutilon theophrasti [12] = assay: Pre-emergence herbicidal activity against Abutilon theophrasti (velvetleaf) assessed as mortality at 1.6 g a.i/10 a; type: functional; details: Abutilon theophrasti, pre-emergence
Cyperus iria [13] = assay: Post-emergence herbicidal activity against Cyperus iria assessed as growth inhibition at 25 g a.i/10 a applied 11 days after germination as foliar spray; type: functional, organism-based
Echinochloa crus-galli [14] = assay: Post-emergence herbicidal activity against Echinochloa crus-galli (barnyard grass) assessed as growth inhibition at 25 g a.i/10 a applied 11 days after germination as foliar spray; type: functional, organism-based
Cyperus iria [15] = assay: Pre-emergence herbicidal activity against Cyperus iria assessed as growth inhibition at 25 g a.i/10 a; type: functional, organism-based
Gossypium hirsutum [16] = assay: (§3) Post-emergence phytotoxicity against Gossypium hirsutum (cotton) assessed as mortality at 6.3 g a.i/10 a applied 11 days after germination as foliar spray; type: organism-based; details: in vivo, other, 264 h
Ipomoea lacunosa [17] = assay: Pre-emergence herbicidal activity against Ipomoea lacunosa assessed as mortality at 1.6 g a.i/10 a; type: functional
Echinochloa crus-galli [18] = assay: Pre-emergence herbicidal activity against Echinochloa crus-galli (barnyard grass) assessed as mortality at 6.3 g a.i/10 a; type: functional; details: Echinochloa crus-galli, pre-emergence
Xanthium strumarium [19] = assay: Pre-emergence herbicidal activity against Xanthium strumarium (cocklebur) assessed as mortality at 6.3 g a.i/10 a; type: functional; details: Xanthium strumarium, pre-emergence
Zea mays [20] = assay: Pre-emergence phytotoxicity against Zea mays (maize) assessed as mortality at 6.3 g a.i/10 a; type: organism-based; details: in vivo, other
Chenopodium album [21] = assay: Post-emergence herbicidal activity against Chenopodium album assessed as growth inhibition at 25 g a.i/10 a applied 11 days after germination as foliar spray; type: functional, organism-based
Glycine max [22] = assay: Pre-emergence phytotoxicity against Glycine max (soybean) assessed as mortality at 1.6 g a.i/10 a; type: organism-based; details: in vivo, other
Amaranthus retroflexus [23] = assay: Pre-emergence herbicidal activity against Amaranthus retroflexus assessed as growth inhibition at 25 g a.i/10 a; type: functional, organism-based
Digitaria sanguinalis [24] = assay: Pre-emergence herbicidal activity against Digitaria sanguinalis (hairy crabgrass) assessed as growth inhibition at 25 g a.i/10 a; type: functional, organism-based
[25] = Pre-emergence phytotoxicity against Gossypium hirsutum (cotton) assessed as mortality at 6.3 g a.i/10 a; type: organism-based; details: in vivo, 6.3 g a.i/10 a
Glycine max [26] = assay: Pre-emergence phytotoxicity against Glycine max (soybean) assessed as mortality at 6.3 g a.i/10 a; type: organism-based; details: in vivo, other
Ipomoea lacunosa [27] = assay: Post-emergence herbicidal activity against Ipomoea lacunosa assessed as mortality at 1.6 g a.i/10 a applied 11 days after germination as foliar spray; type: functional; details: 264 h
Ipomoea lacunosa [28] = assay: Pre-emergence herbicidal activity against Ipomoea lacunosa assessed as mortality at 6.3 g a.i/10 a; type: functional
Persicaria nodosa [29] = assay: Pre-emergence herbicidal activity against Persicaria nodosa assessed as growth inhibition at 25 g a.i/10 a; type: functional, organism-based
Glycine max [30] = assay: Post-emergence phytotoxicity against Glycine max (soybean) assessed as mortality at 1.6 g a.i/10 a applied 11 days after germination as foliar spray; type: organism-based; details: in vivo, other, 264 h
Echinochloa crus-galli [31] = assay: Pre-emergence herbicidal activity against Echinochloa crus-galli (barnyard grass) assessed as growth inhibition at 25 g a.i/10 a; type: functional, organism-based
Zea mays [32] = assay: as §1; type: organism-based; details: in vivo, other
Xanthium strumarium [33] = assay: Pre-emergence herbicidal activity against Xanthium strumarium (cocklebur) assessed as mortality per 10 acre; type: functional
Gossypium hirsutum [34] = assay: Pre-emergence phytotoxicity against Gossypium hirsutum (cotton) assessed as mortality at 1.6 g a.i/10 a; type: organism-based; details: in vivo, other
Amaranthus retroflexus [35] = assay: Pre-emergence herbicidal activity against Amaranthus retroflexus assessed as mortality per 10 acre; type: functional
Abutilon theophrasti [36] = assay: Post-emergence herbicidal activity against Abutilon theophrasti (velvetleaf) assessed as mortality at 6.3 g a.i/10 a applied 11 days after germination as foliar spray; type: functional; details: 264 h
Gossypium hirsutum [37] = assay: Pre-emergence phytotoxicity against Gossypium hirsutum (cotton) assessed as mortality per 10 acre; type: organism-based; details: in vivo
[38] = as §2; type: organism-based; details: in vivo, 1.6 g a.i/10 a
Echinochloa crus-galli [39] = assay: Post-emergence herbicidal activity against Echinochloa crus-galli (barnyard grass) assessed as mortality per 10 acre; type: functional
Ipomoea lacunosa [40] = assay: Pre-emergence herbicidal activity against Ipomoea lacunosa assessed as mortality per 10 acre; type: functional
Xanthium strumarium [41] = assay: Post-emergence herbicidal activity against Xanthium strumarium (cocklebur) assessed as mortality per 10 acre; type: functional
[42] = as §3; type: organism-based; details: in vivo, 6.3 g a.i/10 a
Ipomoea lacunosa [43] = assay: Post-emergence herbicidal activity against Ipomoea lacunosa assessed as mortality at 6.3 g a.i/10 a applied 11 days after germination as foliar spray; type: functional; details: 264 h
Persicaria nodosa [44] = assay: Pre-emergence herbicidal activity against Persicaria nodosa assessed as mortality per 10 acre; type: functional
Ipomoea lacunosa [45] = assay: Post-emergence herbicidal activity against Ipomoea lacunosa assessed as mortality per 10 acre; type: functional
Echinochloa crus-galli [46] = assay: Pre-emergence herbicidal activity against Echinochloa crus-galli (barnyard grass) assessed as mortality per 10 acre; type: functional
Persicaria nodosa [47] = assay: Post-emergence herbicidal activity against Persicaria nodosa assessed as mortality per 10 acre; type: functional
Amaranthus retroflexus [48] = assay: Post-emergence herbicidal activity against Amaranthus retroflexus assessed as mortality per 10 acre; type: functional
Gossypium hirsutum [49] = assay: Post-emergence phytotoxicity against Gossypium hirsutum (cotton) assessed as mortality per 10 acre; type: organism-based; details: in vivo
[50] = Ipomoea lacunosa, pre-emergence

With `COc1cc(OC)nc(Oc2cccc([N+](=O)[O-])c2C(=O)O)n1` the “growth inhibition (GI)” value (Digitaria sanguinalis [1]) was “inactive”, the mortality [2] was less than 5% and the mortality at 16 g/ha (Echinochloa crus-galli [3]) was less than 5%. The Activity (Zea mays [4]) was “Toxic”, the “growth inhibition (GI)” value (Persicaria nodosa [5]) was “Active” and the mortality at 16 g/ha (Xanthium strumarium [6]; Xanthium strumarium, pre-emergence) was less than 5%. The Activity (Zea mays [7]) was “Non-toxic”, the “growth inhibition (GI)” value (Chenopodium album [8]) was “Active” and the “growth inhibition (GI)” value (Amaranthus retroflexus [9]) was “Active”. For the same molecule, the mortality at 16 g/ha (Xanthium strumarium [10]) was less than 5%, the Activity (Gossypium hirsutum [11]) was “Non-toxic” and the mortality at 16 g/ha (Abutilon theophrasti [12]) was less than 5%. The “growth inhibition (GI)” value (Cyperus iria [13]) was “Active”, the “growth inhibition (GI)” value (Echinochloa crus-galli [14]) was “Active” and the “growth inhibition (GI)” value (Cyperus iria [15]) was “Active”. For the same molecule, the Activity (Gossypium hirsutum [16]) was “Non-toxic”, the mortality at 16 g/ha (Ipomoea lacunosa [17]; [50]) was less than 5% and the mortality at 63 g/ha (Echinochloa crus-galli [18]) was less than 5%. The mortality at 63 g/ha (Xanthium strumarium [19]) was less than 5%, the Activity (Zea mays [20]) was “Non-toxic” and the “growth inhibition (GI)” value (Chenopodium album [21]) was “Active”. The Activity (Glycine max [22]) was “Non-toxic”, the “growth inhibition (GI)” value (Amaranthus retroflexus [23]) was “Active” and the “growth inhibition (GI)” value (Digitaria sanguinalis [24]) was “inactive”. The mortality ([25]; read-out: mortality) was less than 5%, the Activity (Glycine max [26]) was “Non-toxic” and the mortality at 16 g/ha (Ipomoea lacunosa [27]) was less than 5%. The mortality at 63 g/ha (Ipomoea lacunosa [28]; [50]) was less than 5%, the “growth inhibition (GI)” value (Persicaria nodosa [29]) was “Active” and the Activity (Glycine max [30]) was “Toxic”. The “growth inhibition (GI)” value (Echinochloa crus-galli [31]) was “inactive”.
For `COc1cc(OC)nc(Sc2cccc(Cl)c2C(=O)O)n1` [PYRITHIOBAC], the “growth inhibition (GI)” value (Digitaria sanguinalis [1]) was “Active”, the Activity (Zea mays [32]) was “Toxic” and the ED90 (Xanthium strumarium [33]) was 25 gAi. For the same molecule, the “growth inhibition (GI)” value (Persicaria nodosa [5]) was “Active”, the Activity (Gossypium hirsutum [34]) was less than 50% and the Activity (Xanthium strumarium [6]) was less than 50%. The Activity (Zea mays [7]) was “Toxic”, the “growth inhibition (GI)” value (Chenopodium album [8]) was “Active” and the “growth inhibition (GI)” value (Amaranthus retroflexus [9]) was “Active”. The ED90 (Amaranthus retroflexus [35]) was 1.5 gAi, the mortality at 63 g/ha (Abutilon theophrasti [36]) was greater than 90% and the ED20 (Gossypium hirsutum [37]) was 50 gAi. It also gave a mortality at 264 h [38] of less than 5%, an ED90 (Echinochloa crus-galli [39]) of 25 gAi and an ED90 (Ipomoea lacunosa [40]) of 25 gAi. The ED90 (Xanthium strumarium [41]) was “Active”, the “growth inhibition (GI)” value (Cyperus iria [13]) was “Active” and the “growth inhibition (GI)” value (Echinochloa crus-galli [14]) was “Active”. The “growth inhibition (GI)” value (Cyperus iria [15]) was “Active”, the mortality at 264 h [42] was less than 5% and the mortality at 63 g/ha (Ipomoea lacunosa [43]) was greater than 90%. For the same molecule, the Activity (Ipomoea lacunosa [17]) was less than 50%, the ED90 (Persicaria nodosa [44]) was “inactive” and the Activity (Zea mays [20]) was “Toxic”. The “growth inhibition (GI)” value (Chenopodium album [21]) was “Active”, the Activity (Glycine max [22]) was “Non-toxic” and the “growth inhibition (GI)” value (Amaranthus retroflexus [23]) was “Active”. For the same molecule, the “growth inhibition (GI)” value (Digitaria sanguinalis [24]) was “Active”, the mortality ([25]; read-out: Activity) was less than 50% and the ED90 (Ipomoea lacunosa [45]) was “inactive”. The ED90 (Echinochloa crus-galli [46]) was 25 gAi, the Activity (Glycine max [26]) was “Non-toxic” and the Activity (Ipomoea lacunosa [28]) was less than 50%. The ED90 (Persicaria nodosa [47]) was 1.5 gAi, the ED90 (Amaranthus retroflexus [48]) was 1.5 gAi and the “growth inhibition (GI)” value (Persicaria nodosa [29]) was “Active”. The Activity (Glycine max [30]) was “Toxic”, the “growth inhibition (GI)” value (Echinochloa crus-galli [31]) was “Active” and the ED20 (Gossypium hirsutum [49]) was 50 gAi.
